Read-outs that look alike come from different tables or passages of the source.
Key:
female B. tryoni = experiment: GC-FID-EAD with odours of infested yellow nectarines; set-up: species or system Bactrocera tryoni; conditions: female B. tryoni antenna
Procedure: Gas-chromatography linked to electrophysiology (GC-FID-EAD) was conducted using female B. tryoni and odours of infested yellow nectarines (collected by SPME), to identify volatiles of interest as candidate female attractants.

[1] = tested on: Mediterranean fruit fly, Ceratitis capitata; conditions: cited from earlier work
[2] = Release rate from LDPE sachets by gravimetry; format: physicochemical; conditions: for Release rate per thickness of LDPE pouch: 22° C., constant, laboratory; for Estimated longevity: standard size sachet (50 cm^2), 1 ml of neat compound
Description: Sachets consist of plastic pouches made of Low Density PolyEthylene (LDPE) layflat tubing of determined size and thickness. Each sachet contained one or several dental wicks (approximately 4 cm length and 1 cm diameter) on which a given amount of the neat chemical compound was applied (between 0.1 and 5 g). The impregnated wick (20) was subsequently enclosed in the LDPE pouch (10) and sealed using a heat sealer (FIG. 3).
Release rates of the short chain esters and fungal alcohols were investigated in a range of sachet designs.

[3] = tested on: Queensland fruit flies antennae and palps; experiment: Electroantennogram (EAG) and Electropalpogram (EPG) screening; set-up: species or system Bactrocera tryoni
Description: FIG. 2. Electrophysiological responses of Queensland fruit flies antennae (A) and palps (B) to fungal (FV) components. Graphs located on the upper part of each figure represent the electric potential of the antenna/palp. Arrows indicate points in time at which chemical stimulations are applied. Olfactory “responses” are characterised by sudden drops (spike) of the electric potential in the antenna; the amplitude of which is positively correlated to response strength. Stars indicate statistical significance of response amplitudes elicited by test compounds compared to that of the solvent (blank=paraffin oil). Bars represent the normalized responses relative to a positive control (ethyl hexanoate) of male (grey) and female (white) flies. Letters above bars indicate significant differences in response strength between each sex.
Graphs located on the upper part represent the electric potential of the antenna/palp. Arrows indicate points in time at which chemical stimulations are applied. Olfactory “responses” are characterised by sudden drops (spike) of the electric potential in the antenna; the amplitude of which is positively correlated to response strength. Stars indicate statistical significance of response amplitudes elicited by test compounds compared to that of the solvent (blank=paraffin oil). Bars represent the normalized responses relative to a positive control (ethyl hexanoate) of male (grey) and female (white) flies. Letters above bars indicate significant differences in response strength between male and female Qfly.

SMILES | Release rate per thickness of LDPE pouch ([2]; 50 μm LDPE pouch) | Release rate per thickness of LDPE pouch ([2]; 100 μm LDPE pouch) | Release rate per thickness of LDPE pouch ([2]; 150 μm LDPE pouch) | Release rate per thickness of LDPE pouch ([2]; 200 μm LDPE pouch) | Estimated longevity [2] | electrophysiological (EAD) response (female B. tryoni) | electrophysiological response in EAG [1] | electrophysiological responses (EAG/EPG) [3] | electrophysiological responses (EAG/EPG) ([3]; listed as iso-butyl alcohol) | electrophysiological responses (EAG/EPG) ([3]; listed as 2-methyl-1-butanol) | electrophysiological responses (EAG/EPG) ([3]; listed as 2-methylbutanol)
CCCCCCC1CCC(=O)O1 (stereo not shown) [γ-decalactone] |  |  |  |  |  | significant response | evoke an electrophysiological response |  |  |  | 
CC(C)CO [Isobutyl alcohol] | 20 mg/day | 4 mg/day | 2 mg/day |  | >1 year |  |  | weak and inconsistent responses | strong electrophysiological responses |  | 
CC(C)CCO [Isoamyl alcohol] | 12 mg/day | 3 mg/day | 2 mg/day |  | >1 year |  |  | strong electrophysiological responses |  |  | 
CCOC(C)=O [Ethyl acetate] | 880 mg/day | 302.7 mg/day | 180.6 mg/day | 134 mg/day | ~6 days |  |  |  |  |  | 
CCC(C)CO (stereo not shown) [2-Methyl-butanol, 2-methyl-1-butanol] | 16.4 mg/day | 4.1 mg/day | 2.1 mg/day |  | >1 year |  |  |  |  | strong electrophysiological responses | strong responses

Second part, led by results:

Release rate per thickness of LDPE pouch ([2]; 50 μm LDPE pouch) | Release rate per thickness of LDPE pouch ([2]; 100 μm LDPE pouch) | Release rate per thickness of LDPE pouch ([2]; 150 μm LDPE pouch) | Release rate per thickness of LDPE pouch ([2]; 200 μm LDPE pouch) | Estimated longevity [2] | SMILES | electrophysiological (EAD) response (female B. tryoni) | electrophysiological response in EAG [1] | electrophysiological responses (EAG/EPG) [3] | electrophysiological responses (EAG/EPG) ([3]; listed as iso-butyl alcohol) | electrophysiological responses (EAG/EPG) ([3]; listed as 2-methyl-1-butanol) | electrophysiological responses (EAG/EPG) ([3]; listed as 2-methylbutanol)
700 mg/day | 295 mg/day | 171 mg/day | 127 mg/day | ~6 days | CCCC(=O)OCC [Ethyl butyrate] |  |  |  |  |  | 
880 mg/day | 321 mg/day | 200 mg/day | 171 mg/day | ~5 days | CCOC(=O)CC [Ethyl propionate] |  |  |  |  |  | 

From patent US20240000071A1, “DEVICES, COMPOUNDS AND METHODS FOR INSECT CONTROL” (Agriculture Victoria Services Pty Ltd, priority 2020, published 2024)
